Measurements reported in paper PMC8999917, “Structure–Activity Relationship of Synthetic Ginkgolic Acid Analogs for Treating Type 2 Diabetes by PTPN9 Inhibition” (International Journal of Molecular Sciences, 2022).

Assays:
PTPN9 = target: T1, PTPN9 (Homo sapiens, UniProt P43378); assay: PTPN9 enzyme inhibition with DiFMUP substrate; type: biochemical; settings: DiFMUP 220 µM, PTPN9 0.15 nM; NA: no activity
T1 construct: made in house; host or cells: Escherichia coli Rosetta (DE3)
T1 sequence (P43378 277-581): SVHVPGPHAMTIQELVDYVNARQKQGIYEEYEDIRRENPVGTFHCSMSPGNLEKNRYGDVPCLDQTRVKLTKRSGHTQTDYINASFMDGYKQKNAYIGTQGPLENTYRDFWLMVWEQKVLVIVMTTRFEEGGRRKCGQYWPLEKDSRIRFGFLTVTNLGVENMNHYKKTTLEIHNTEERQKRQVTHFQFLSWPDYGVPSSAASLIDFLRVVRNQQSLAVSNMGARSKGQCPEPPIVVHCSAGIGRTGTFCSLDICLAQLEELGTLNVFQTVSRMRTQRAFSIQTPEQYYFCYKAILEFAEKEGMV
Description: (§1) The purification and kinetic analyses of PTPN9 and DUSP9 (Ser277–581) were performed following methods described in the literature, with slight modifications. PAGE analysis data and enzyme kinetic constants are presented in Figure S1 and Table S1, respectively. Enzyme activity in the presence or absence of the compounds was measured using DiFMUP, a representative PTP fluorogenic substrate. First, the inhibitory effects of compounds 1–3 were evaluated using 50 µM PTPN9 and 20 µM DUSP9. There was an increase in the inhibitory activity of compound 1 for both enzymes as the number of CH2 units increased from 9 to 14 (Figure 2A,B).
(§2) Next, the IC50 values of the compounds, which induce a 50% inhibition of DiFMUP hydrolytic enzyme activity, were determined (Table 1). The IC50 values were determined from the dose–response enzyme inhibition curves of each compound. The dose–response curves for compounds 1e and 1f against PTPN9 and DUSP9, respectively, are presented in Figure 2C,D. Dose–response curves were also obtained for the other compounds (Figures S2 and S3).
(§3) The methods employed for PTP overexpression and purification have been described in a previous study. In brief, human PTPN9 and DUSP9 were cloned into a pET28a vector (Merk Millipore, Darmstadt, Germany) containing a hexahistidine (His6) tag or a maltose-binding protein (MBP) tag in its N-terminus (see Supplementary Materials). Recombinant genes were separately transformed into Escherichia coli Rosetta (DE3) (Merk Millipore, Darmstadt, Germany), and the overexpression of each gene was induced via the addition of 0.1 mM IPTG (Ducherfa Biochemie, Haarlem, RV, USA). After 16 h of incubation at 18 °C, cell pellets were obtained via centrifugation (3570× g at 4 °C for 15 min), resuspended in lysis buffer (50 mM Tris, pH: 7.5, 500 mM NaCl, 5% glycerol, 0.025% 2-mercaptoethanol, and 1 mM phenyl-methylsulfonyl fluoride (PMSF)), and lysed by ultrasonication. Subsequently, cell lysates were centrifuged at 29,820× g for 30 min at 4 °C; then, the supernatant was collected and incubated with a cobalt affinity resin (TALON® Metal Affinity Resin, Takara Korea, Seoul, Korea). After 1 h of incubation at 4 °C, the desired proteins were eluted by adding the lysis buffer supplemented with 100 mM imidazole. Samples were stored at –80 °C until use.
(§4) The enzymatic activities of purified PTPN9 and DUSP9 were measured using 6,8-difluoro-4-methylumbelliferyl phosphate (DiFMUP), the most widely used fluorogenic PTP substrate in the literature. To determine KM values, PTPN9 (0.15 nM) and DUSP9 (200 nM) were added to a reaction buffer (20 mM Bis-tris, pH: 7.0, 150 mM NaCl, 2.5 mM dithiothreitol (DTT), and 0.01% Triton X-100) containing DiFMUP (800, 400, 200, 100, 50, 25, 12.5, or 6.25 μM) in a 96-well black plate. The final reaction volume was 100 µL. The fluorescence intensity was continuously monitored for 10 min (Ex/Em = 355/460 nm) on a Victor™ X4 multilabel plate reader (Perkin Elmer, Norwalk, CT, USA). KM values were obtained using Lineweaver–Burk plots analysis.
(§5) To evaluate the enzyme inhibitory effects of GA and its analogs, 10 µl of the enzyme stock solution (1.5 nM PTPN9 and 2 µM DUSP9) in the reaction buffer was added into the mixture of DiFMUP (to a final concentration of 220 µM and 90 µM for PTPN9 and DUSP9, respectively) and each compound (to a final concentration of 50 µM and 20 µM for PTPN9 and DUSP9, respectively) was added to the reaction buffer. Enzyme activity was measured as described above. Half-inhibitory concentration (IC50) values were determined under similar conditions, except for the concentrations of the inhibitors (200, 100, 50, 25, 12.5, 6.25, or 3.125 µM for PTPN9 and 25, 12.5, 6.25, 3.125, 1.563, 0.782, or 0.391 µM for DUSP9). The dose-dependent curve was fitted to the four-parameter logistic regression equation, (y = a + (b – a)/(1 + (x/c)^d), to obtain IC50 values using the Kaleida Graph software Ver. 4.1.3. (Synergy Software Inc, PA, USA).

DUSP9 = target: T2, DUSP9 (Homo sapiens, UniProt Q99956); assay: DUSP9 enzyme inhibition with DiFMUP substrate; type: biochemical; settings: DiFMUP 90 µM, DUSP9 200 nM; NA: no activity
T2 construct: made in house; host or cells: Escherichia coli Rosetta (DE3)
T2 sequence (Q99956 1-384): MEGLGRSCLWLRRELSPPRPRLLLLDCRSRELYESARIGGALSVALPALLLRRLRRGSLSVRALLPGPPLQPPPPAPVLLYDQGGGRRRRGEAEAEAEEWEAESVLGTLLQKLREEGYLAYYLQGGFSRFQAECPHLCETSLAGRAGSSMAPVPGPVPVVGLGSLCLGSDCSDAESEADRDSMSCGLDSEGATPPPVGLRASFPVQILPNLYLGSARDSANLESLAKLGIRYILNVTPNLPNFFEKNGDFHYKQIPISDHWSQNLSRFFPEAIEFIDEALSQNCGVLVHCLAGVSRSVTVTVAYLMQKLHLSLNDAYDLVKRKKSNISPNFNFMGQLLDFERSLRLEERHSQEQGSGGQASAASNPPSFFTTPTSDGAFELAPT
Description: as §1, §2, §3, §4, §5

Structure (SMILES) | IC50 (PTPN9) | IC50 (DUSP9)
CCCCCCCCCCCCCCCOc1cccc(O)c1C(=O)O [Compound 1f] | 10.2 ± 0.52 µM | 5.87 ± 0.55 µM
CCCCCCCCCCCCCOc1cccc(O)c1C(=O)O [Compound 1e] | 18.31 ± 0.17 µM | 6.4 ± 0.87 µM
